We go through 17 compounds from PubChem BioAssay AID330 (DTP/NCI, 2004).

“And” between values parts separate entries of the source, which are not always exact repeats. Equal values may be shown once. Toxic doses and inconclusive results are not listed.

This test has as its system P388 leukemia ip, CD2F1 mice, survival T/C. The experiment in a line: NCI In Vivo Anticancer Drug Screen. Data for tumor model P388 Leukemia (intraperitoneal) in CD2F1 (CDF1) mice. The conditions noted are these: endpoint: median survival time, higher = longer survival. The method in brief:
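Mice carrying the transplanted tumor received test compound or vehicle. Survival was recorded in each group, and the value is the treated-group measurement divided by that of the vehicle-treated control group.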

The mark [1] stands for this setting: dose: 50.0 mg/kg/injection, schedule: Q01DX005 (ip), vehicle: saline with Tween-80.
The mark [2] stands for this setting: dose: 100.0 mg/kg/injection, schedule: Q01DX005 (ip), vehicle: saline with Tween-80.
[3] abbreviates: dose: 200.0 mg/kg/injection, schedule: Q01DX005 (ip), vehicle: saline with Tween-80.
Where [4] appears, read: dose: 12.5 mg/kg/injection, schedule: Q01DX009 (ip), vehicle: saline.
Where [5] appears, read: dose: 25.0 mg/kg/injection, schedule: Q01DX009 (ip), vehicle: saline.

Turning to `CCCC1N[C@H](C(=O)O)CS1` (stereo partly specified), the T/C is, setting by setting: (dose: 50.0 mg/kg/injection, schedule: Q01DX001 (ip), vehicle: Klucel (hydroxypropylcellulose) (HPC)) 100 % of control; (dose: 100.0 mg/kg/injection, schedule: Q01DX001 (ip), vehicle: Klucel (hydroxypropylcellulose) (HPC)) 97 % of control; (dose: 200.0 mg/kg/injection, schedule: Q01DX001 (ip), vehicle: Klucel (hydroxypropylcellulose) (HPC)) 102 % of control; (dose: 400.0 mg/kg/injection, schedule: Q01DX001 (ip), vehicle: Klucel (hydroxypropylcellulose) (HPC)) 100 % of control.
Regarding `CSc1nc(N(C)C)c2cnn(C3CCCCO3)c2n1` (stereo unspecified), the T/C (dose: 100.0 mg/kg/injection, schedule: Q04DX002 (ip), vehicle: saline with Tween-80) is 97 % of control; the T/C (dose: 200.0 mg/kg/injection, schedule: Q04DX002 (ip), vehicle: saline with Tween-80) was 100 % of control; the T/C (dose: 400.0 mg/kg/injection, schedule: Q04DX002 (ip), vehicle: saline with Tween-80) is 100 % of control.
Take `CC(C)=CCCC(C)(OC1OC(COC2OCC(O)C(O)C2O)C(O)C(O)C1O)C1CCC2(C)C1C(O)CC1C3(C)CCC(OC4OC(CO)C(O)C(O)C4OC4OC(CO)C(O)C(O)C4O)C(C)(C)C3CCC12C` (stereo unspecified): the T/C is 98 % of control (dose: 18.75 mg/kg/injection, schedule: Q01DX009 (ip), vehicle: Klucel (hydroxypropylcellulose) (HPC)); 100 % of control (dose: 37.5 mg/kg/injection, schedule: Q01DX009 (ip), vehicle: Klucel (hydroxypropylcellulose) (HPC)); 92 % of control (dose: 75.0 mg/kg/injection, schedule: Q01DX009 (ip), vehicle: Klucel (hydroxypropylcellulose) (HPC)); 92 % of control (dose: 150.0 mg/kg/injection, schedule: Q01DX009 (ip), vehicle: Klucel (hydroxypropylcellulose) (HPC)).
On to `Nc1nc2c(C(=O)c3ccco3)nnn2c2cccc(Cl)c12`, for which the T/C is 100 % of control (dose: 60.0 mg/kg/injection, schedule: Q01DX005 (ip), vehicle: saline with Tween-80); 104 % of control (dose: 120.0 mg/kg/injection, schedule: Q01DX005 (ip), vehicle: saline with Tween-80); 104 % of control (dose: 240.0 mg/kg/injection, schedule: Q01DX005 (ip), vehicle: saline with Tween-80).
Turning to `CC1(C)N=C(N/N=C/c2ccccc2)SP1(=O)NNc1ncccn1` (stereo unspecified), the T/C is 101 % of control (dose: 60.0 mg/kg/injection, schedule: Q01DX005 (ip), vehicle: Klucel (hydroxypropylcellulose) (HPC)) and 103 % of control (dose: 120.0 mg/kg/injection, schedule: Q01DX005 (ip), vehicle: Klucel (hydroxypropylcellulose) (HPC)).
For `CCc1cnc2ccccc2c1/C=C/c1ccc(N(C)C)cc1`, the T/C reads like this: (dose: 50.0 mg/kg/injection, schedule: Q01DX009 (ip), vehicle: saline with Tween-80) 98 % of control; (dose: 100.0 mg/kg/injection, schedule: Q01DX009 (ip), vehicle: saline with Tween-80) 105 % of control; (dose: 200.0 mg/kg/injection, schedule: Q01DX009 (ip), vehicle: saline with Tween-80) 103 % of control.
For `CC(=O)OC1CC(/C=C/C(=O)OC2=C(O)CCC2=O)=CN1` (stereo unspecified), the T/C was 100 % of control (dose: 4.37 mg/kg/injection, schedule: Q01DX001 (ip), vehicle: Klucel (hydroxypropylcellulose) (HPC)); 99 % of control (dose: 8.75 mg/kg/injection, schedule: Q01DX001 (ip), vehicle: Klucel (hydroxypropylcellulose) (HPC)); 102 % of control (dose: 17.5 mg/kg/injection, schedule: Q01DX001 (ip), vehicle: Klucel (hydroxypropylcellulose) (HPC)); 105 % of control (dose: 35.0 mg/kg/injection, schedule: Q01DX001 (ip), vehicle: Klucel (hydroxypropylcellulose) (HPC)).
As to `CN1N=C(c2ccccc2)N=P12N=C(c1ccccc1)NN2C` (stereo unspecified), the T/C was 94 % of control (dose: 60.0 mg/kg/injection, schedule: Q01DX005 (ip), vehicle: saline); 102 % of control (dose: 120.0 mg/kg/injection, schedule: Q01DX005 (ip), vehicle: saline); 103 % of control (dose: 240.0 mg/kg/injection, schedule: Q01DX005 (ip), vehicle: saline).
As for `Fc1ccc(N2CSC(=S)N(c3ccc(F)cc3F)C2)c(F)c1`, the T/C runs as follows: under setting [1], 107 % of control; under setting [2], 104 % of control; under setting [3], 95 % of control.
Turning to `c1ccc(C2=NN(c3ccccc3)C3(c4ccccc4)CCCN23)cc1` (stereo unspecified), the T/C is, setting by setting: (dose: 100.0 mg/kg/injection, schedule: Q01DX001 (ip), vehicle: saline with Tween-80) 108 % of control; (dose: 200.0 mg/kg/injection, schedule: Q01DX001 (ip), vehicle: saline with Tween-80) 97 % of control; (dose: 400.0 mg/kg/injection, schedule: Q01DX001 (ip), vehicle: saline with Tween-80) 95 % of control.
Consider `CCC/C=C1/OC(=O)C2=C[C@H]3CC[C@]21[C@]1(OC(=O)C2=C1CCC=C2)[C@H]3CCC`, for which the T/C is, setting by setting: (dose: 7.0 mg/kg/injection, schedule: Q01DX005 (ip), vehicle: Klucel (hydroxypropylcellulose) (HPC)) 104 % of control; (dose: 14.0 mg/kg/injection, schedule: Q01DX005 (ip), vehicle: Klucel (hydroxypropylcellulose) (HPC)) 100 % of control; (dose: 28.0 mg/kg/injection, schedule: Q01DX005 (ip), vehicle: Klucel (hydroxypropylcellulose) (HPC)) 106 % of control; (dose: 56.0 mg/kg/injection, schedule: Q01DX005 (ip), vehicle: Klucel (hydroxypropylcellulose) (HPC)) 97 % of control.
`CCNC(=O)C1CCN(Cc2c[nH]c3ccccc23)CC1`: the T/C is 113 % of control (dose: 50.0 mg/kg/injection, schedule: Q04DX003 (ip), vehicle: saline with Tween-80); 93 % of control (dose: 100.0 mg/kg/injection, schedule: Q04DX003 (ip), vehicle: saline with Tween-80); 102 % of control (dose: 200.0 mg/kg/injection, schedule: Q04DX003 (ip), vehicle: saline with Tween-80).
Turning to `[Br][Pt].[NH-]CC[N-]CC[NH-]`, the T/C by setting is: (dose: 1.56 mg/kg/injection, schedule: Q01DX009 (ip), vehicle: saline) 102 % of control; (dose: 3.13 mg/kg/injection, schedule: Q01DX009 (ip), vehicle: saline) 100 % of control; (dose: 6.25 mg/kg/injection, schedule: Q01DX009 (ip), vehicle: saline) 100 % of control; under setting [4], 97 % of control; under setting [5], 97 % of control.
Take `O=c1c(F)cn(C(c2ccccc2)c2ccccc2)c(=O)n1C(c1ccccc1)c1ccccc1`: the T/C was 101 % of control (dose: 12.5 mg/kg/injection, schedule: Q01DX009 (ip), vehicle: suspension in saline); 115 % of control (dose: 18.75 mg/kg/injection, schedule: Q01DX009 (ip), vehicle: suspension in saline); 106 % of control (dose: 25.0 mg/kg/injection, schedule: Q01DX009 (ip), vehicle: suspension in saline); 97 % of control (dose: 37.5 mg/kg/injection, schedule: Q01DX009 (ip), vehicle: suspension in saline); 100 % of control (dose: 50.0 mg/kg/injection, schedule: Q01DX009 (ip), vehicle: suspension in saline); 101 % of control and 115 % of control (dose: 75.0 mg/kg/injection, schedule: Q01DX009 (ip), vehicle: suspension in saline). Besides, the T/C (dose: 150.0 mg/kg/injection, schedule: Q01DX009 (ip), vehicle: suspension in saline) was 97 % of control.
For the compound `CCS/C(C#N)=C(/C)c1ccccc1`, the T/C under setting [1] was 101 % of control, the T/C under setting [2] was 106 % of control and the T/C under setting [3] was 108 % of control.
For `CN(C)c1ncnc2c1ncn2C1OC(CO)C(N)C1O` (stereo unspecified), the T/C reads like this: (dose: 12.5 mg/kg/injection, schedule: Q01DX009 (ip), vehicle: saline with Tween-80) 104 % of control; under setting [4], 118 % of control; (dose: 25.0 mg/kg/injection, schedule: Q01DX009 (ip), vehicle: saline with Tween-80) 113 % of control; under setting [5], 119 % of control; (dose: 50.0 mg/kg/injection, schedule: Q01DX009 (ip), vehicle: saline) 117 % of control; (dose: 75.0 mg/kg/injection, schedule: Q01DX009 (ip), vehicle: saline sonified) 163 % of control. The T/C (dose: 100.0 mg/kg/injection, schedule: Q04DX003 (ip), vehicle: saline sonified) was 119 % of control; the T/C (dose: 200.0 mg/kg/injection, schedule: Q04DX003 (ip), vehicle: saline sonified) is 109 % of control; the T/C (dose: 400.0 mg/kg/injection, schedule: Q04DX003 (ip), vehicle: saline sonified) was 95 % of control.
Take `CC/C(=N\NS(=O)(=O)c1ccc(C)cc1)c1ccc(C)cc1`: the T/C by setting is: (dose: 100.0 mg/kg/injection, schedule: Q04DX003 (ip), vehicle: saline) 100 % of control; (dose: 200.0 mg/kg/injection, schedule: Q04DX003 (ip), vehicle: saline) 98 % of control; (dose: 400.0 mg/kg/injection, schedule: Q04DX003 (ip), vehicle: saline) 98 % of control.
